Measurements from article PMC13099078 (2023).

Key:
[1] = tested on: vancomycin-binding aptamer (45-base; EAB sensor) (DNA, aptamer) CGAGGGTACCGCAATAGTACTTATTGTTCGCCTATTGTGGGTCGG; assay: alternating current voltammetry; conditions: 2 mM Mg2+, PBS; 1x PBS, 37°C; apparent; Langmuir fit; 50 and 5 Hz
[2] = tested on: vancomycin-binding aptamer (45-base; EAB sensor) (DNA, aptamer) CGAGGGTACCGCAATAGTACTTATTGTTCGCCTATTGTGGGTCGG; assay: differential pulse voltammetry; conditions: 2 mM Mg2+, PBS; 1x PBS, 37°C; apparent; Langmuir fit

Kd [1]: 46 ± 4 µM
Kd [2]: 76 ± 6 µM
SMILES: CN[C@H](CC(C)C)C(=O)N[C@H]1C(=O)N[C@@H](CC(N)=O)C(=O)N[C@H]2C(=O)N[C@H]3C(=O)N[C@H](C(=O)N[C@H](C(=O)O)c4cc(O)cc(O)c4-c4cc3ccc4O)[C@H](O)c3ccc(c(Cl)c3)Oc3cc2cc(c3O[C@@H]2O[C@H](CO)[C@@H](O)[C@H](O)[C@H]2O[C@H]2C[C@](C)(N)[C@H](O)[C@H](C)O2)Oc2ccc(cc2Cl)[C@H]1O
